In one data set the test system is c-fos promoter. Kind of data set: c-fos promoter assay (c-fos-Luci luciferase). In kind it is cell-based, bovine. The method, then: To further confirm the proliferation ability, an assay using a promoter of proto-oncogene c-fos, which is activated in the earliest stage of cell proliferation, was carried out. The gene c-fos-Luci having luciferase ligated under this promoter, and a candidate gene, were introduced in a weight ratio of 1:1 by lipofection into bovine vascular endothelial cells, and after 24 to 48 hours, the luciferase activity was measured.

The subject of a further data set is HEAC endothelial cells. Kind of data set: Endothelial cell migration, modified Boyden chamber. In kind it is cell-based, human. As to the method: A polyvinyl pyrrolidone (PVP)-free polycarbonate membrane having […] (Neuro Probe Inc., Gaithersburg, Md.) was coated overnight with 0.1% gelatin and then washed with phosphate buffered saline to remove an excess of the gelatin coating. Then, 28 μl growth factor-free EBM2 medium supplemented with 1% FBS was arranged in a lower chamber, and the membrane was arranged on the lower chamber. […] The Boyden chamber was incubated at 37° C. for 4 hours. After incubation, the membrane was removed and the cells on the upper side of the membrane were removed. The cells on the lower side of the membrane were stained with Diff-Quick (Sysmex, Hyogo Pref., JP). The cells in each of randomly selected 8 visual fields (×100) were counted.

The test system of a further data set is tube formation. The experiment in a line: Tube formation, Kurabo Angiogenesis kit with CD31 staining and image quantification. The conditions noted are these: for tube Area % Increase / tube Length % Increase: Table 2; for Area (% increase): Example 5, Table 4; for Length (% increase): Example 5, Table 5. In kind it is cell-based, human. The method, then:
Using a Kurabo Angiogenesis kit (KZ-1000, Kurabo Industries Ltd.), tube formation was examined. A blank, vascular endothelial growth factor-A protein (VEGF-A), pVEGF plasmid (plasmid containing a gene encoding vascular endothelial growth factor), and pSPORT1 (a plasmid not containing a gene encoding vascular endothelial growth factor) were used as controls. […]
Culture was carried out at 37° C. in a 5% CO2 incubator. The medium was exchanged on the 4th, 7th and 9th days of culture with a fresh medium containing the same additives.
CD31 (PECAM-1) staining primary antibody (mouse anti-human CD31 antibody) was diluted 4,000-fold with a blocking solution (Dulbecco's phosphate buffer solution (PBS(−)) containing 1% BSA). 0.5 ml of this primary antibody solution was added to each well and incubated for 60 minutes at 37° C. After incubation was finished, each well was washed 3 times with 1 ml blocking solution.
Then, 0.5 ml of a secondary antibody (goat anti-mouse IgG/alkali phosphatase conjugate) solution, diluted 500-fold with the blocking solution, was added to each well and incubated for 60 minutes at 37° C., and each well was washed 3 times with 1 ml distilled water. Separately, 2 tablets of BCIP/NBT were dissolved in 20 ml distilled water and filtered through a filter with a pore size of 0.2 μm, to prepare a substrate solution. 0.5 ml of the prepared BCIP/NBT substrate solution was added to each well and incubated at 37° C. until the tube turned deep violet (usually in 5 to 10 minutes). After incubation was finished, each well was washed 3 times with 1 ml distilled water, followed by removing the washing solution using suction, and the plate was left to air-dry. After drying, each well was observed under a microscope.
Each well was observed under a 40× magnification microscope and a photograph of each well was taken. An enlarged photograph with the scale of 1 mm magnified 40-fold was taken (FIG. 5).
Each of the resulting images was quantified with angiogenesis quantification software (KSW-5000U, Kurabo Industries Ltd.) according to the following method. The area (left in FIG. 6) and length (right in FIG. 6) of tubes formed in each visual field were measured on the scale by computer analysis with various indicators. […]

In the next data set the test system is HAEC. Kind of data set: MTS assay of endothelial cell proliferation with added peptide. In kind it is cell-based, human. The note with it: MTS, Table 3. The method, then: F2 peptide was synthesized and then contacted in a varying amount with HAEC, and the ability thereof to proliferate the cells was examined by MTS assay. The MTS assay is a modification of the MTT assay, and is a method of measuring living cells based on a reaction of reducing tetrazolium salt (MTS) by living cells in culture, into a colored product formazan. Specifically, this assay is carried out as follows: • HAEC was inoculated onto a 96-well plate at a density of 750 cells/well. • 2 μl/well of each sample was added to 100 μl/well endothelial cell medium (1% FBS, without EGF). 2 μl/well was added every day (until Day 6) (the medium was not exchanged). • 20 μl measurement solution (Cell Titer 96 AQueous One Solution Cell Proliferation Assay (Promega)) was added to each well and mixed with 100 μl of the endothelial cell medium, and the old medium was removed by suction. A mixed suspension of the measurement solution and the cells was put in a volume of 120 μl/well and then incubated for 1 to 5 hours in a CO2 incubator. • The absorbance at 490 nm was measured with a plate reader.
The sample group (8 wells each) is as follows: • NC: Only EBM medium (endothelial cell medium) containing 1% FBS. The other samples were cultured by adding various peptides to this medium containing serum. • VEGF-A: Recombinant VEGF-A (KURABO) was added at a final concentration of 10 ng/ml. • F2-1: F2 peptide was added at a final concentration of 1 ng/ml. • F2-10: F2 peptide was added at a final concentration of 10 ng/ml. • F2-100: F2 peptide was added at a final concentration of 100 ng/ml. • F2-1000: F2 peptide was added at a final concentration of 1000 ng/ml.

Data set [1] deals with phosphatidyl inositol-3-kinase/Akt (PI3K/Akt). The conditions noted are these: according to a previous study; cited from earlier work.
The test system of data set [2] is ERK (extracellular signal-related kinase). The note with it: according to a previous study; cited from earlier work.
For data set [3], the system named is human vascular smooth muscle cell (VSMC). Kind of data set: Cell proliferation after gene transfer into VSMC. In kind it is cell-based. The conditions noted are these: FIG. 4.
The next data set relates to VEGF promoter. Kind of data set: VEGF promoter assay (luciferase gene ligated to VEGF promoter). In kind it is cell-based, bovine. The note with it: FIG. 3 right graph.
Data set [4] relates to human aortic endothelial cells (HAEC). The experiment in a line: Cell proliferation assay after gene transfer into HAEC (Cell Titer 96). The conditions noted are these: HAEC as host cell; FIG. 4. The data set is classed as cell-based. The method, then:
A human heart cDNA library (a plasmid having human heart-derived cDNA ligated to plasmid pSPORT having a CMV promoter; GIBCO BRL) was introduced into E. coli DH12S, and the plasmid prepared from the E. coli. 200 μg of the plasmid was encapsulated in 10000 HAU of the HVJ-E gene-transfer vector (the gene-transfer vector, 3×10^9 particles, prepared in Example 2 in the present invention). As host cells, human aortic endothelial cells HEAC (Sanko Junyaku Co., Ltd.), about 5000 cells, were added together with medium to each well of a 96-well microtiter plate, then cultured overnight and used. 1/100 of the HVJ-E was added to each well containing the host cells, and then left at 37° C. for 30 minutes, followed by exchanging the medium. […]
After2 weeks, a cell proliferation assay was carried out. Using Cell Titer 96 (Promega) as a reagent, the oxidoreduction of mitochondria was measured as a change in the color of the reagent and used as an indicator of cell growth. […]
Each of nine clones having the insert was encapsulated respectively in HVJ-E and subjected to a second screening, and as a result, a gene showing a high proliferation activity was obtained. […] The gene c-fos-Luci having luciferase ligated under this promoter, and a candidate gene, were introduced in a weight ratio of 1:1 by lipofection into bovine vascular endothelial cells, and after 24 to 48 hours, the luciferase activity was measured. […]

We go through four substances from patent US7807176B2, “Polypeptide promoting vascular endothelial cell growth” (Genomidea, Inc., priority 2004, dated 2010).

Consider “f1: gene fragment, nucleotide sequence No. 2764-3073 in the frame of SART-2, ligated with expression vector pCDNA3.1”, for which the “activity in c-fos promoter assay of gene fragments in pCDNA3.1” value with c-fos promoter (FIG. 8) is on record as “no activity”.

Take “RSLEGTDRFPFVRLKNSRKLEFKDIKGIKR (CONTROL PEPTIDE) [reference compound]”: the “migration % Increase” value in the data set with HEAC endothelial cells (1 μg/ml, 4 hours) is on record as −10.1%. Besides, in the data set with HEAC endothelial cells (F2 0.01 to 1 μg/ml, control peptide 1 μg/ml, VEGF 50 ng/ml, FIG. 10), the “cell migration activity (in words)” value is “not observed”. For the same substance, in the data set with tube formation (1 μg/ml), the “tube Area % Increase” value is given as −12% and the “tube Length % Increase” value is −11%. Moreover, in the data set with tube formation (10 μg/ml), the “tube Area % Increase” value was −9% and the “tube Length % Increase” value was −3%.

As for “LL-37 peptide: peptide having antimicrobial activity, angiogenesis activity and artery-forming activity; rich in arginine, α-helix structure [reference compound]”, the results for the “endothelial proliferation Increase [times]” value with HAEC (100 ng/ml) and in the data set with HAEC (1 μg/ml) were 1.279 times and 1.361 times, respectively. For the same substance, in data set [1], the “effect on PI3K/Akt activity” value is listed as “increased rapidly”. For the same substance, the “effect on ERK activity” value in data set [2] was “increased rapidly”. Also, the “Area (% increase)” value in the data set with tube formation (1 μg/ml) is on record as 70.1%; in the data set with tube formation (10 μg/ml) it was 43%. The “Length (% increase)” value in the data set on tube formation (1 μg/ml) is 60.9%; in the data set on tube formation (10 μg/ml), 28%.

Turning to “p3743: gene clone (plasmid) from a human heart cDNA library; insert is nucleotide sequence No. 2364-3958 in SART-2”, the “ability to activate the c-fos promoter, compared with VEGF” value with c-fos promoter (FIG. 3 left graph) is “higher ability to activate the c-fos promoter than VEGF”. For the same substance, the “luciferase activity (activation of c-fos promoter), compared with HGF” value in the data set on c-fos promoter (candidate gene and c-fos-Luci 1:1 by lipofection, bovine vascular endothelial cells, after 24 to 48 hours, FIG. 2) is listed as “higher luciferase activity than HGF”. Further, the “area and length of the formed tubes” value in the data set with tube formation (supernatant of HAEC into which the gene had been introduced, FIG. 6) was “significantly greater”. Further, the “proliferation activity in human vascular smooth muscle cells after gene introduction” value in data set [3] is “same as that of the negative control, GFP”. In addition, in the data set on VEGF promoter, the “activation of the VEGF promoter, compared with VEGF” value was “higher activation of the VEGF promoter than by VEGF”. The “proliferation ability in HAEC after gene introduction” value in data set [4] is recorded as “higher proliferation ability than HGF”.
